Experimental data published in patent publication US5089476A, “Glutamic acid derivatives” (Roussel Uclaf, priority 1987, dated 1992).

Columns and labels:
Format in all cases: cell-based, human
[1] = test system: interleukin-1 (IL-1) production by monocytes; test: Interleukin-1 (IL-1) test on monocyte culture supernatants (mouse thymocyte co-mitogenic bioassay); conditions: thymidine incorporation by C3H/HeJ mouse thymocytes with PHA
Experimental: (§1) The mononuclear cells of the circulating blood of normal donors were separated by the classical technique described by Boyum using a Ficoll gradient. After being washed, the mononuclear cells were incubated at 37° C. for 1 hour in the proportion of 5×10^6 monocytes (NSE^+ cells) per ml of culture medium, 5 ml per culture bottle. The culture medium used in this experiment was composed of RPMI 1640 to which antibiotics and HEPES buffer had been added. After one hour, the non-adherent cells were removed by washing the bottles with medium previously brought to 37 C, and the adherent cells, composed essentially of monocytes (>90%), were cultured again in the presence of different amounts of test products in a PBS medium (Dulbecco) without Ca^2+ or Mg^2+. Culturing was continued for 24 or 48 hours and the cell supernatants were then withdrawn, centrifuged, aliquoted and stored either at -80° C. or at -20° C. The culture supernatants were replaced in the bottles by the same amount of pyrogen-free distilled water to Lyse the cells. […]
This test was first described by Gery et al in 1972 [Gery et al, 1972 Potentiation of the T Lymphocyte response to mitogens. […] The results were expressed as the difference between the pulses per minute incorporated by the cultures in the presence of supernatants and the pulses per minute incorporated by the control cultures.

[2] = test system: tumor necrosis factor (TNF) production by monocytes; test: Tumor Necrosis Factor (TNF) test on monocyte culture supernatants (toxicity on L-929 target cells); conditions: toxicity on L-929 cells with actinomycin D
Experimental: as §1, with “cells. The Lysate was recovered, aliquoted and also stored at -20° C.” for “cells.”
The technique was sensitized by adding actinomycin D to the test. […] After 24 hours of culturing, the number of unlysed viable cells was measured by staining the plates with crystal violet and measuring the optical density of different wells on a multiscan reader.

[3] = test system: monocytes; test: Stimulation of monocytic cells with an immunostimulant; conditions: for stimulation of monocytes: adherent blood monocytes of normal donors, cultured 24 or 48 hours with test product; for synergy with interferon-γ: in the presence of interferon-γ 10^3 U/ml, a dose at which IFN-γ alone was inactive
Experimental: The mononuclear cells of the circulating blood of normal donors were separated by the classical technique described by Boyum using a Ficoll gradient. After being washed, the mononuclear cells were incubated at 37° C. for 1 hour in the proportion of 5×10^6 monocytes (NSE^+ cells) per ml of culture medium, 5 ml per culture bottle. The culture medium used in this experiment was composed of RPMI 1640 to which antibiotics and HEPES buffer had been added. After one hour, the non-adherent cells were removed by washing the bottles with medium previously brought to 37 C, and the adherent cells, composed essentially of monocytes (>90%), were cultured again in the presence of different amounts of test products in a PBS medium (Dulbecco) without Ca^2+ or Mg^2+. Culturing was continued for 24 or 48 hours and the cell supernatants were then withdrawn, centrifuged, aliquoted and stored either at -80° C. or at -20° C. The culture supernatants were replaced in the bottles by the same amount of pyrogen-free distilled water to Lyse the cells. The Lysate was recovered, aliquoted and also stored at -20° C.

Molecule | IL-1 production by monocytes [1] | TNF production by monocytes [2] | stimulation of monocytes [3] | synergy with interferon-γ [3] | activity of IFN-γ alone ([3]; interferon-γ 10^3 U/ml alone)
C=C(CC(NC(=O)CC[C@@H](N)C(=O)O)C(=O)O)CC(NC(=O)[C@H](C)N)C(=O)O (stereo partly drawn) [Example 2, 2-(L-Alanylamino)-6-(γ-D-glutamylamino)-4-methyleneheptanedioic acid] | stimulated | stimulated | stimulated monocytes | synergy | 
C=C(CC(N)C(=O)O)CC(NC(=O)CC[C@@H](N)C(=O)O)C(=O)O (stereo partly drawn) [Example 1, 2-amino-6-(γ-D-glutamylamino)-4-methylene-heptanedioic acid] | stimulated | stimulated | stimulated monocytes | synergy | 
IFN-γ: interferon-γ (10^3 U/ml) added to monocyte cultures to test synergy (protein, UniProt P01579 24-161, looked up) Interferon gamma: QDPYVKEAENLKKYFNAGHSDVADNGTLFLGILKNWKEESDRKIMQSQIVSFYFKLFKNFKDDQSIQKSVETIKEDMNVKFFNSNKKKRDDFEKLTNYSVTDLNVQRKAIHELIQVMAELSPAAKTGKRKRSQMLFRG |  |  |  |  | inactive
